# Legend:
# [1] = system: rice; test: Test B flooded paddy test; assay type: in vivo, Oryza sativa; details: 1000 g ai/ha, scale 0 to 100 (0 no effect, 100 complete control)
# Summary of the method: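 Formulated test chemicals went onto postemergence plants measuring 2 to 18 cm, at one to four leaves. For the paddy assay, species had reached two leaves. Scoring took place 13–15 days later by eye, relative to untreated plants, using 0 for no effect up to 100 for full control.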
# [2] = system: small flower umbrella sedge; test: Test B flooded paddy test; assay type: in vivo, Cyperus difformis; details: 1000 g ai/ha, scale 0 to 100 (0 no effect, 100 complete control)
# Summary of the method: (§1)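 After treating 2-leaf paddy plants or 2–18 cm postemergence plants (1 to 4 leaves) with formulated chemical, researchers kept them in a greenhouse for 13–15 days. Effects were judged visually versus controls: 0 indicates none, 100 total control.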
# [3] = system: wild oat; test: Test B postemergence herbicide test; assay type: in vivo, Avena fatua; details: postemergence
# Summary of the method: (§2)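 Plants grow to 1- to 4-leaf stage (2–18 cm) for postemergence spraying, or to 2-leaf stage for the paddy test. Formulated compound is applied. Greenhouse holding lasts 13–15 days. Response is scored visually relative to controls, 0 no effect to 100 complete control; a dash means no result.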
# [4] = system: large crabgrass; test: Test B pre-/postemergence herbicide test; assay type: in vivo, Digitaria sanguinalis; details: for Crabgrass, Large plant response rating: postemergence
# Summary of the method: (§3)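 Plants compared with untreated controls 13–15 days post-treatment and given a visual 0–100 injury score. Applications: preemergence to seeds; postemergence at 1- to 4-leaf (2–18 cm); paddy species flooded, 2-leaf stage. Vehicle non-phytotoxic, surfactant included.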
# [5] = system: lambsquarters; test: Test B pre-/postemergence herbicide test; assay type: in vivo, Chenopodium album; details: for Lambsquarters plant response rating: postemergence
# Summary of the method: as §3
# [6] = system: blackgrass; test: Test B postemergence herbicide test; assay type: in vivo, Alopecurus myosuroides; details: postemergence
# Summary of the method: as §1
# [7] = system: morningglory; test: Test B pre-/postemergence herbicide test; assay type: in vivo, Ipomoea coccinea; details: for Morningglory plant response rating: postemergence
# Summary of the method: (§4)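 Flooded paddy rice and barnyardgrass were treated at the 2-leaf stage; upland plantings received compound either on sown seed or on 1- to 4-leaf seedlings. All were kept 13–15 days in a greenhouse and scored visually, 0–100, relative to untreated plants.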
# [8] = system: ducksalad; test: Test B flooded paddy test; assay type: in vivo, Heteranthera limosa; details: 1000 g ai/ha, scale 0 to 100 (0 no effect, 100 complete control)
# Summary of the method: as §1
# [9] = system: Surinam grass; test: Test B pre-/postemergence herbicide test; assay type: in vivo, Urochloa decumbens; details: for Surinam Grass plant response rating: postemergence
# Summary of the method: as §3
# [10] = system: corn; test: Test B pre-/postemergence herbicide test; assay type: in vivo, Zea mays; details: for Corn plant response rating: postemergence
# Summary of the method: as §3
# [11] = system: cocklebur; test: Test B pre-/postemergence herbicide test; assay type: in vivo, Xanthium strumarium; details: for Cocklebur plant response rating: postemergence
# Summary of the method: as §4
# [12] = system: velvetleaf; test: Test B pre-/postemergence herbicide test; assay type: in vivo, Abutilon theophrasti; details: for Velvetleaf plant response rating: postemergence
# Summary of the method: as §3
# [13] = system: barnyardgrass; test: Test B pre-/postemergence herbicide test; assay type: in vivo, Echinochloa crus-galli; details: for Barnyardgrass plant response rating: postemergence
# Summary of the method: as §4
# [14] = system: barnyardgrass; test: Test B flooded paddy test; assay type: in vivo, Echinochloa crus-galli; details: 1000 g ai/ha, scale 0 to 100 (0 no effect, 100 complete control)
# Summary of the method: as §1
# [15] = system: wheat; test: Test B postemergence herbicide test; assay type: in vivo, Triticum aestivum; design: key to Wheat plant response rating: 0 = no effect, 100 = complete control; details: postemergence
# Summary of the method: as §2
# [16] = system: pigweed; test: Test B pre-/postemergence herbicide test; assay type: in vivo, Amaranthus retroflexus; details: for Pigweed plant response rating: postemergence
# Summary of the method: as §3
# [17] = 125 g ai/ha, visual rating, scale 0 (no effect) to 100 (complete control)
# [18] = 500 g ai/ha, scale 0 to 100, 0 is no effect, 100 is complete control
# [19] = 125 g ai/ha, 0 = no effect, 100 = complete control, preemergence
# [20] = 500 g ai/ha, visual rating, 0 = no effect, 100 = complete control, preemergence
# [21] = 125 g ai/ha, 0 is no effect, 100 is complete control, preemergence
smiles,measurement,setting,value
CCn1nc(C2(C)CC2)cc1C(=O)Nc1cc(C(=O)N(C)C)ccc1F [Compound 299],Rice plant response rating,[1],90
same,"Sedge, Umbrella plant response rating",[2],90
same,"Oat, Wild plant response rating",[3]; [17],20
same,"Oat, Wild plant response rating",[3]; [18],40
same,"Crabgrass, Large plant response rating (0 to 100 scale)",[4]; [19],100
same,"Crabgrass, Large plant response rating",[4]; [17],10
same,"Plant response rating, Crabgrass, Large",[4]; [20],100
same,"Crabgrass, Large plant response rating",[4]; [18],90
same,Lambsquarters plant response rating (0 to 100 scale),[5]; [19],100
same,Lambsquarters plant response rating,[5]; [17],40
same,"Plant response rating, Lambsquarters",[5]; [20],100
same,Lambsquarters plant response rating,[5]; [18],100
same,Blackgrass plant response rating,[6]; [17],20
same,Blackgrass plant response rating,[6]; [18],50
same,Morningglory plant response rating (0 to 100 scale),[7]; [19],40
same,Morningglory plant response rating,[7]; [17],70
same,"Plant response rating, Morningglory",[7]; [20],100
same,Morningglory plant response rating,[7]; [18],80
same,Ducksalad plant response rating,[8],90
same,Surinam Grass plant response rating (0 to 100 scale),[9]; [19],100
same,Surinam Grass plant response rating,[9]; [17],20
same,"Plant response rating, Surinam Grass",[9]; [20],100
same,Surinam Grass plant response rating,[9]; [18],80
same,Corn plant response rating (0 to 100 scale),[10]; [19],50
same,Corn plant response rating,[10]; [17],0
same,"Plant response rating, Corn",[10]; [20],90
same,Corn plant response rating,[10]; [18],20
same,Cocklebur plant response rating (0 to 100 scale),[11]; [19],20
same,Cocklebur plant response rating,[11]; [17],20
same,"Plant response rating, Cocklebur",[11]; [20],60
same,Cocklebur plant response rating,[11]; [18],70
same,Velvetleaf plant response rating,[12]; [17],60
same,"Plant response rating, Velvetleaf",[12]; [20],100
same,Velvetleaf plant response rating,[12]; [18],100
same,Barnyardgrass plant response rating (0 to 100 scale),[13]; [19],90
same,Barnyardgrass plant response rating,[13]; [17],10
same,"Plant response rating, Barnyardgrass",[13]; [20],100
same,Barnyardgrass plant response rating,[13]; [18],90
same,Barnyardgrass plant response rating,[14],90
same,Wheat plant response rating,[15]; [17],20
same,Wheat plant response rating,[15]; [18],30
same,Pigweed plant response rating (0 to 100 scale),[16]; [19],100
same,Pigweed plant response rating,[16]; [17],90
same,"Plant response rating, Pigweed",[16]; [20],100
same,Pigweed plant response rating,[16]; [18],100
CCn1nc(C(C)(C)C)cc1C(=O)Nc1cccc(OC(F)F)c1 [Compound 332],Rice plant response rating,[1],50
same,"Sedge, Umbrella plant response rating",[2],90
same,"Oat, Wild plant response rating",[3]; [17],40
same,"Oat, Wild plant response rating",[3]; [18],60
same,"Plant response rating (0 to 100 scale), Crabgrass, Large",[4]; [21],40
same,"Crabgrass, Large plant response rating",[4]; [17],50
same,"Plant response rating, Crabgrass, Large",[4]; [20],100
same,"Crabgrass, Large plant response rating",[4]; [18],80
same,"Plant response rating (0 to 100 scale), Lambsquarters",[5]; [21],90
same,Lambsquarters plant response rating,[5]; [17],80
same,"Plant response rating, Lambsquarters",[5]; [20],100
same,Lambsquarters plant response rating,[5]; [18],100
same,Blackgrass plant response rating,[6]; [17],40
same,Blackgrass plant response rating,[6]; [18],80
same,"Plant response rating (0 to 100 scale), Morningglory",[7]; [21],10
same,Morningglory plant response rating,[7]; [17],40
same,"Plant response rating, Morningglory",[7]; [20],30
same,Morningglory plant response rating,[7]; [18],70
same,Ducksalad plant response rating,[8],90
same,"Plant response rating (0 to 100 scale), Surinam Grass",[9]; [21],10
same,Surinam Grass plant response rating,[9]; [17],20
same,"Plant response rating, Surinam Grass",[9]; [20],20
same,Surinam Grass plant response rating,[9]; [18],40
same,"Plant response rating (0 to 100 scale), Corn",[10]; [21],0
same,Corn plant response rating,[10]; [17],0
same,"Plant response rating, Corn",[10]; [20],0
same,Corn plant response rating,[10]; [18],10
same,"Plant response rating (0 to 100 scale), Cocklebur",[11]; [21],0
same,Cocklebur plant response rating,[11]; [17],30
same,"Plant response rating, Cocklebur",[11]; [20],0
same,Cocklebur plant response rating,[11]; [18],70
same,"Plant response rating (0 to 100 scale), Velvetleaf",[12]; [21],30
same,Velvetleaf plant response rating,[12]; [17],60
same,Velvetleaf plant response rating,[12]; [18],90
same,"Plant response rating (0 to 100 scale), Barnyardgrass",[13]; [21],10
same,Barnyardgrass plant response rating,[13]; [17],20
same,"Plant response rating, Barnyardgrass",[13]; [20],60
same,Barnyardgrass plant response rating,[13]; [18],60
same,Barnyardgrass plant response rating,[14],60
same,Wheat plant response rating,[15]; [17],20
same,Wheat plant response rating,[15]; [18],30
same,"Plant response rating (0 to 100 scale), Pigweed",[16]; [21],100
same,Pigweed plant response rating,[16]; [17],100
same,"Plant response rating, Pigweed",[16]; [20],100
same,Pigweed plant response rating,[16]; [18],100

# Source: US20060069132A1, “Azolecarboxamide herbicides” (priority 2004, published 2006)
